Experimental data: ChEMBL document CHEMBL3112504, “Design, structural and biological characterization of a VEGF inhibitor β-hairpin-constrained peptide” (2014)
Calls of active or inactive are those of the source. The calls are words filed in the database; no cut-off is given here. Peptide text beside a SMILES is read from it.

What was measured:
HUVEC [1] = assay: Induction of proapoptosis in HUVEC assessed as increase in caspase 3 activity at 25 to 100 ng/ml after 8 hrs by fluorimetric assay; format: functional, cell-based; conditions: Homo sapiens
HUVEC [2] = assay: Induction of proapoptosis in VEGF-treated HUVEC assessed as increase in caspase 3 activity at 25 to 100 ng/ml after 8 hrs by fluorimetric assay; format: functional, cell-based; conditions: Homo sapiens
HUVEC [3] = assay: Inhibition of VEGFR in HUVEC assessed as reduction in VEGF-induced ERK1/2 phosphorylation at 25 to 100 ng/ml after 15 mins by Western blotting analysis; format: cell-based; conditions: Homo sapiens
HUVEC [4] = assay: Inhibition of VEGFR in HUVEC assessed as reduction in ERK1/2 phosphorylation at 25 to 100 ng/ml after 15 mins by Western blotting analysis; format: cell-based; conditions: Homo sapiens
HUVEC [5] = assay: Induction of proapoptosis in VEGF-treated HUVEC assessed as increase in caspase 3 activity after 8 hrs by fluorimetric assay; format: functional, cell-based; conditions: Homo sapiens
HUVEC [6] = assay: Inhibition of VEGFR in HUVEC assessed as reduction in Akt phosphorylation at 25 to 100 ng/ml after 15 mins by Western blotting analysis; format: cell-based; conditions: Homo sapiens
HUVEC [7] = assay: Inhibition of VEGF-induced HUVEC proliferation at 50 to 100 […] after 48 hrs by CyQuant cell proliferation assay; format: functional, Homo sapiens
HUVEC [8] = assay: Inhibition of VEGFR in HUVEC assessed as reduction in VEGF-induced Akt phosphorylation at 25 to 100 ng/ml after 15 mins by Western blotting analysis; format: cell-based; conditions: Homo sapiens
HUVEC [9] = assay: Inhibition of VEGFR in HUVEC assessed as reduction in VEGF-induced Akt phosphorylation at 100 ng/ml after 15 mins by Western blotting analysis; format: cell-based; conditions: Homo sapiens
HUVEC [10] = assay: Inhibition of VEGFR in HUVEC assessed as reduction in VEGF-induced ERK1/2 phosphorylation at 100 ng/ml after 15 mins by Western blotting analysis; format: cell-based; conditions: Homo sapiens
HUVEC [11] = assay: Induction of proapoptosis in VEGF-treated HUVEC assessed as increase in caspase 3 activity at 100 ng/ml after 8 hrs by fluorimetric assay; format: functional, cell-based; conditions: Homo sapiens

| Compound | Activity (HUVEC [1]) | Activity (HUVEC [2]) | inhibition (HUVEC [3]) | inhibition (HUVEC [4]) | Activity (HUVEC [5]) | inhibition (HUVEC [6]) | inhibition (INH) (HUVEC [7]) [%] | inhibition (HUVEC [8]) | inhibition (HUVEC [9]) | inhibition (HUVEC [10]) | Activity (HUVEC [11]) | inhibition (HUVEC [7]; Homo sapiens) |
| --- | --- | --- | --- | --- | --- | --- | --- | --- | --- | --- | --- | --- |
| CC[C@H](C)[C@H](NC(=O)[C@H](Cc1c[nH]c2ccccc12)NC(=O)[C@H](CC(C)C)NC(=O)[C@H](CS)NC(=O)[C@H](CCC(N)=O)NC(=O)[C@@H](N)CCCCN)C(=O)N[C@@H](CCCNC(=N)N)C(=O)N[C@@H](CO)C(=O)NCC(=O)N[C@@H](CC(=O)O)C(=O)N[C@@H](CCCNC(=N)N)C(=O)N1CCC[C@H]1C(=O)N[C@@H](Cc1c[nH]c2ccccc12)C(=O)N[C@@H](Cc1ccc(O)cc1)C(=O)N[C@@H](CS)C(=O)N[C@H](C(=O)N[C@@H](CO)C(=O)O)[C@@H](C)O (H-KQCLWIRSGDRPWYCTS-OH) | inactive | Active | Active | inactive | Dose-dependent effect | inactive | >95 | Active |  |  |  |  |
| H-KPDRWSQWRSTYSLSIG-OH |  |  |  |  |  |  |  |  | inactive | inactive | inactive | inactive |
